Measured values from US12128037B2 (priority 2017, dated 2024).
In brackets after ≈: the same amount, converted by molar mass. Several values for one entry are separate records, joined by “and”; a condition that tells them apart may be missing. Equal entries are not always repeated. Where two headings read alike, the source gives them in different places.

Key:
[1] = Gravimetric vapour sorption (GVS), hygroscopicity; format: physicochemical; conditions: 25° C.
Method: Gravimetric vapour sorption (GVS) was used to determine the hygrocopicity of the samples: experiments were performed at 25° C. using a DVS 1 instrument from SMS Ltd to record adsorption-desorption isotherms using different methods, the main features being: a single sorption/desorption cycle from 0 to 80% RH in 10% RH steps with a dm/dt trigger value of 0.002% (dm/dt=change in mass with time—when the balance stability is within this value the next step is automatically started, however, if those conditions are not achieved there is a default maximum time for each step of 6 hours). The sample amount used was 1-3 mg.

[2] = Solubility in water or FaSSIF-V2 medium (Example 8, HPLC)
Method: The mobile phase consists of mobile phase (A): 1.13 g sodium dihydrogen phosphate and 2.5 g sodium acetate are dissolved in 1000 mL purified water. The pH is afterwards adjusted with acetic acid (100%) to 4.8. and mobile phase (B): 1 part mobile phase A is mixed with 4 parts of methanol for chromatography. The flow rate was 1.0 mL/min, injection volume 5 μL and detection wavelengths 320 nm (HP DAD series 1100). Run time is 10 min. Quantitation was performed using external standard methodology. The assay method has been validated with respect to selectivity, repeatability and linearity. Samples are prepared with dilute ammonia R3 PhEur.
The saturated solutions were filtrated using centrifuge filters (Nylon, […]) and the clear supernatants were respectively injected either directly or after dilution with dilute ammonia R3 PhEur.

[3] = Pharmacokinetics of sulfasalazine in rat, oral administration; format: in vivo, male Wistar (Hannover) rats; conditions: 60 mg/kg
Method: (§1) In accordance with Swedish legislations for preclinical in vivo studies in rodents and following evaluation and approval of the experimental procedures the local ethical committee (M388-12), following acclimatization to the housing conditions for a minimum of 7 days after arrival, male Wistar (Hannover) rats (Taconic, Denmark), average weight 180-200 g; average age 8-10 weeks, were treated with test items (see Table 2); 12-16 h prior to dosing all food except for an amount equivalent to a half day consumption was removed. The test items were administrated using a soft gavage tube (p.o.) or by injecting the test item in the tail vein (i.v). The volume given was 10 mL/kg (p.o.) or 1 mL/kg (i.v.). Before i.v administration the rats were anesthetized using isoflurane. The rats were conscious during sample collection and the blood was taken from the sub-lingual vein. Blood samples were collected from each rat over a period of up to 24 h. At each time point two aliquots of 50 μL each was added to a vial containing 150 μL of sterile water. The samples were mixed immediately and stored in −18° C. until preparation for bioanalysis commenced. All formulations were prepared on the same day that dosing took place. The body weight of the rat was recorded before dosing. The weight of the syringe was recorded before and after administration to allow calculation of the actual amount of test sample delivered. The actual doses were used during the evaluation of the data.
(§2) The plasma levels of sulfasalazine were determined using LCMS/MS in mrm (multiple reaction monitoring) mode.
(§3) Samples and standards were injected by a HTC PAL from CTC analytics into an LC system from Shimadzu consisting of a high pressure gradient system of two LC-10 AD pumps controlled by a SCL-10A controller from Shimadzu. The samples were separated using reverse-phase chromatography with gradient elution at a flow rate of 0.8 mL/min. Mobile phases were A:94.9/5/0.1 water/acetonitrile/formic acid and B:[…] water/acetonitrile/formic acid. Gradient started at 0% B and increased linearly to 100% B in 4 minutes, 100% B was kept for 0.5 minutes and then the system returned to 0% B in 0.1 minutes. The system was equilibrated for 1.4 minutes until the total run time of 6 minutes. The eluent was analyzed by a Quattro Ultima from Micromass equipped with an electrospray ion source. Data was collected and calibrations were calculated by MassLynx 4.0 software. […] The eluent was ionized by negative ion electrospray and the mrm transition from 397 to 197 m/z was monitored.
The diluted blood sample (50 μL blood, 150 μL water) was thawed and mixed. 400 μL of Acetonitrile, to precipitate the protein was added and mixed again. The sample was centrifuged at 5,000 g for 5 minutes. 100 μL of the supernatant was transferred to a 300 μL glass vial and 100 μL of water was added to reduce the acetonitrile concentration.
Positive and negative mode MS/MS was employed for sulfasalazine. The concentration of the standard curve was in the range from 5 nM to 15625 nM. Samples with analyte concentrations above the upper limit of quantification were diluted with matrix to reach within the assay range. A non-compartmental analysis (NCA) was performed using the Phoenix WinNonLin analysis tool.

[4] = design: species or system male Wistar (Hannover) rats; conditions: rat, in vivo, iv
Method: as §1, §2
as §3, with “monitored. […]” for “monitored.”
Positive and negative mode MS/MS was employed for sulfasalazine. […] Samples with analyte concentrations above the upper limit of quantification were diluted with matrix to reach within the assay range. […]

[5] = cited from earlier work
[6] = Solubility in de-ionized water (HPLC); conditions: 24 °C, thermodynamic from solid
Method: The flow rate was 1.0 mL/min, injection volume 5 μL and detection wavelengths 358 nm (for assay) and 260 nm (for chromatographic purity). Quantitation was performed using external standard methodology. The assay method has been validated with respect to selectivity, repeatability and linearity.

[7] = Transport across Caco 2 cell monolayer; format: in vitro ADME; conditions: human, direction ab (apical to basal), 180 min incubation
[8] = test system: binding of TNF-alpha to its receptor; conditions: 125I-TNF-alpha displacement; cited from earlier work
[9] = cited from earlier work; remark: listed apart in the source
[10] = male, Wistar (Hannover), whole blood

## CCNCC.O=C(O)c1cc(N=Nc2ccc(S(=O)(=O)Nc3ccccn3)cc2)ccc1O [Form A diethylamine salt, Diethylamine 2-hydroxy-5-[2-[4-[(2-pyridinylamino)sulfonyl]phenyl]diazenyl]-benzoate]
[1]; 30% RH
  water vapor uptake (GVS): 0.3 % w/w
[1]; 80% RH
  water vapor uptake (GVS): 0.5 % w/w

## CNCC(O)C(O)C(O)C(O)CO.O=C(O)c1cc(N=Nc2ccc(S(=O)(=O)Nc3ccccn3)cc2)ccc1O [Form A meglumine salt]
[1]; 30% RH, listed as Example 1
  water vapor uptake (GVS): < 0.4 % w/w
[1]; 30% RH, listed as Example 2
  water vapor uptake (GVS): 0.4 % w/w
[1]; 80% RH, listed as Example 1
  water vapor uptake (GVS): < 0.9 % w/w
[1]; 80% RH, listed as Example 2
  water vapor uptake (GVS): 1.1 % w/w
[2]; pH 6.8
  Solubility: 60.3 mg/mL
[3]; in vivo
  F: 3.8%
  T1/2: 1.9 ± 0.5 h
[4]; 1 mg/kg
  AUCinf obs: 1,661 ± 191 h*nM
  T1/2: 1.2 h
[4]; 5 mg/kg
  AUCinf obs: 11,889 ± 735 h*nM
  T1/2: 1.3 h

## Nc1ccc(S(=O)(=O)Nc2ccccn2)cc1 [sulfapyridine]
[5]; metabolite formed from non-absorbed sulfasalazine by gut flora
  systemic bioavailability: about 60%

## O=C(O)c1cc(/N=N/c2ccc(S(=O)(=O)Nc3ccccn3)cc2)ccc1O [sulfasalazine, 2-hydroxy-5-[2-[4-[(2-pyridinylamino)sulfonyl]phenyl]diazenyl]-benzoic acid]
[5]; intravenously administered
  half-life: approximately 7.6±3.6 hours
[5]; man, oral
  time of median peak concentration: 6 h
[6]
  Solubility: 60 µg/mL (≈ 151 µM)
[7]; 50 μg/mL
  Papp A→B at 180 min, 50 μg/mL: 1.39 ×10⁻⁶ cm/s
[7]; 200 μg/mL
  Papp A→B at 180 min, 200 μg/mL: 1.16 ×10⁻⁶ cm/s
[2]; FaSSIF-V2, room temperature (20-25° C.), saturated solution
  Solubility: 0.78 mg/mL (≈ 1960 µM)
[2]; water, pH 5.9, water, thermodynamic from solid
  solubility at 24 h: 60 µg/mL (≈ 151 µM)
[3]; male, Wistar (Hannover), in vivo
  F: 2.5%
[3]; [10]
  Cmax: 700 ± 110 nM
  Tmax: 43.2 ± 34.2 min
[3]; male, Wistar (Hannover), whole blood, p.o., read-out: AUC0.1, 5 h obs
  AUC: 0.81 ± 0.13 µM·h
[3]; male, Wistar (Hannover), whole blood, p.o., read-out: AUCall
  AUC: 2.81 ± 0.41 µM·h
[3]; male, Wistar (Hannover), whole blood, p.o.
  half-life: 120 ± 30 min
[8]
  binding of TNF-alpha to its receptor: inhibits
[9]; USP classification
  solubility, United States Pharmacopoeia class practically insoluble: < 0.1 mg/mL
[9]; de-ionized water at 24° C., literature value
  solubility in de-ionized water: 0.03 mg/mL and 0.031 mg/mL
[9]; water
  solubility in water: less than 5 mg/100 ml
